Measured values taken from patent publication US11807881B2, “Polypeptide, fusion polypeptide, and antibiotic against gram-negative bacteria comprising same” (priority 2020, dated 2023).

What was measured:
[1] = system: Pseudomonas aeruginosa PA01; assay: Galleria mellonella Pseudomonas aeruginosa infected model, viability; type: in vivo; settings: PA01 50 CFU/larva; LNT101 0.6 or 6 μg/larva, Colistin 0.5 μg/larva; observation for 72 hours
Method: The Pseudomonas aeruginosa killing ability of the endolysin LNT101 was also confirmed in vivo. As an animal model for the in vivo effectivity evaluation, Galleria mellonella was used. The Galleria mellonella model was divided into the healthy group (non-infection group), Pseudomonas aeruginosa infected group (drug non-administration group), 2 LNT101 administration groups in which LNT101 was administered into the infection model, Colistin administration group in which colistin was administered into the Pseudomonas aeruginosa infected model, and combination administration group in which LNT101 and colistin were administered in combination into the Pseudomonas aeruginosa infected model to progress an experiment, and 10 of Galleria mellonella per each group was used.
The Pseudomonas aeruginosa infected model was prepared by infecting Pseudomonas aeruginosa PA01 at the LD80 concentration, 50 CFU/larva, and LNT101 was administered at 0.6 μg/larva (3 mg/Kg) and 6 μg/larva (30 mg/Kg), respectively. Colistin was administered at 0.5 μg/larva (2.5 mg/Kg), and for administration in combination, Colistin at 0.5 μg/larva (2.5 mg/Kg) and LNT101 at 6 μg/larva (30 mg/Kg) were administered. […] In particular, in the LNT101 6 μg/larva (30 mg/Kg) administration group, the viability of 30% was confirmed.

P. aeruginosa = assay: MIC of polymyxin-based antibiotics with LNT101 (broth microdilution); type: cell-based; settings: for reduction of MIC of the polymyxin-based antibiotic in combination with LNT101: LNT101 endolysin 1 μM; for MIC of antibiotics: P. aeruginosa 1×10^5 CFU/ml, 37° C. 18 hours, combination with LNT101 endolysin 1 μM, otherwise PBS
Method: The synergy effect by treatment in combination of the polymyxin-based antibiotic having a mechanism acting on the cell membrane of bacterium and endolysin LNT101 was confirmed. Specifically, polymyxin B (32 μg/ml-0.03 μg/ml) and colistin (128 μg/ml-0.1 μg/ml) were diluted by ½ per well in a microplate, and then a LNT101 endolysin 1 μM combination treatment group and the same amount of PBS treatment group was made. In all wells, P. aeruginosa 1×10^5 CFU/ml was treated by total 100 μl. After that, they were cultured at 37° C. for 18 hours.
The MIC change of the polymyxin-based antibiotic by combination treatment of the polymyxin-based antibiotic (polymyxin B, Colistin) and LNT101 endolysin at various concentrations was confirmed, and shown in Table 3 below.

E. coli(ATCC 8739) = assay: MIC of polymyxin-based antibiotics with LNT102 (broth microdilution); type: cell-based; settings: + PBS or + LNT102 endolysin 1 μM, 37° C. 18 hours
Method: (§1) A synergy effect by combination treatment of a polymyxin-based antibiotic having a mechanism acting on the cell membrane of bacterium and endolysin LNT102 purified in Example 2.2 was confirmed. Specifically, after treating 4 μg/ml Polymyxin B to the 96 well microplate row A, serial dilution was performed by ½ in rows B-G. Polymyxin was not treated to the row H. After treating 8 μg/ml Colistin to the 96 well microplate row A, a combination treatment group in which LNT102 endolysin 1 μM was further treated and a PBS treatment group in the same amount were made. All wells were treated with Pseudomonas aeruginosa and Escherichia coli in an amount of 1×10^5 CFU/ml, total 100 μl, respectively. After that, they were cultured at 37° C. for 18 hours.
(§2) The MIC change of the polymyxin-based antibiotics by combination treatment of the polymyxin-base antibiotics (polymyxin B, Colistin) at various concentrations and LNT102 endolysin was measured and shown in Table 5 below.

[2] = system: P. aeruginosa (ATCC 27853); assay: as above; type: cell-based; settings: + PBS or + LNT102 endolysin 1 μM, 37° C. 18 hours
Method: as §1, §2

[3] = system: A. baumannii (ATCC 19606); assay: as above; type: cell-based; settings: + PBS or + LNT102 endolysin 1 μM, 37° C. 18 hours
gram negative bacteria = assay: MIC change of polymyxin-based antibiotics with LNT102, all strains of Table 5; type: cell-based, P. aeruginosa, A. baumannii, E. coli; settings: LNT102 endolysin 1 μM; maximum over the strains of Table 5
Method: as §1, §2

gram negative bacterium = assay: CFU reduction evaluation on various gram negative bacterium; type: cell-based
Method: For this, Endolysin LNT101 and LNT102 at a concentration of 2 μM and each 1×10^6 CFU of Pseudomonas aeruginosa (PA01; ATCC 15692), Acinetobacter baumannii (ATCC 17978), Escherichia coli (ATCC 8739), Klebsiella pneumoniae (ATCC 13883), Enterobacter aerogenes (CCARM 16006), and Salmonella enteritidis (ATCC 13076) was added in reaction buffer (20 mM Tris-Cl, pH 7.5) so that the final volume was 200 μl, and it was left at 37° C. for 2 hours. In 2 hours, the number of colonies of each gram negative bacterium was confirmed, and the result was shown in FIG. 8 (in FIG. 8, PA90 represents endolysin LNT101 and mtPA90 represents endolysin LNT102, respectively).
The endolysin LNT102 at a concentration of 0.1, 0.5, 2.5 μM, and each 1×10^6 CFU of Pseudomonas aeruginosa, Acinetobacter baumannii, and Escherichia coli was added in reaction buffer (20 mM Tris-Cl, pH 7.5) so that the final volume was 200 μl, and it was left at 37° C. for 2 hours.
In order to confirm the killing ability against gram negative bacterium of the fusion polypeptide LNT103 prepared in Example 3.2, CFU reduction evaluation was performed for various gram negative bacterium. In order to perform the CFU reduction evaluation, 2 μM of each of LNT101, LNT102, and LNT103 prepared in Example 3, and 1×10^6 CFU of each of Pseudomonas aeruginosa (PA01; ATCC 15692), Acinetobacter baumannii (ATCC 17978), Escherichia coli (ATCC 8739), Klebsiella pneumoniae (ATCC 13883), and Enterobacter aerogenes (CCARM 16006) were added to reaction buffer (20 mM Tris-Cl, pH7.5) so that the final volume was 200 μl, and it was left at 37° C. for 2 hours. After that, the number of the colonies of each gram negative bacterium was confirmed to compare and evaluate the antibiotic effect of each polypeptide. As a control group, the PBS treatment group (treating PBS in the same volume as the fusion polypeptide) was used.
In addition, the same test was performed by using the fusion polypeptide LNT103, and CecA-LNT101 at a concentration of 2 μM, and the result was shown in FIG. 15. For comparison, the same test was performed for groups treated with LNT102 or PBS.
On the other hand, in order to compare the antibacterial activity in case that a protein other than endolysin (LNT102 or LNT101) was fused to Cecropin A, the killing ability against gram negative bacterium of the fusion polypeptide LNT103 and cecropin A-EGFP fusion protein (a protein in which EGFP (GenBank Accession No. AAB02572.1) having no endolysin activity by replacing LNT102 in LNT103) was evaluated. For this, the proteins were treated in an amount of 0.2 μM or 2 μM, respectively, to perform the CFU reduction test. […] In particular, it could be confirmed that the CFU Counting result for all the tested gram negative bacterium killed all bacterium treated with 0, when LNT103 2 μM was treated.
Furthermore, the killing ability against gram negative bacterium according to the concentration and/or treatment time of the fusion polypeptide LNT103 was tested. Specifically, the fusion polypeptide LNT103 at a concentration of 0.1, 0.3, 0.9, or 2.7 μM and 1×10^6 CFU of Pseudomonas aeruginosa (PA01; ATCC 15692) or Acinetobacter baumannii (ATCC 19606) were added to reaction buffer (20 mM Tris-Cl, pH7.5) so that the final volume was 200 μl, and it was left at 37° C. for 2 hours, and then the number of the colonies was confirmed, and the result was shown in A of FIG. 17.
In addition, the fusion polypeptide LNT103 at a concentration of 2 μM and 1×10^6 CFU of Pseudomonas aeruginosa (PA01; ATCC 15692) were added to reaction buffer (20 mM pH7.5) so that the final volume was 200 μl, and in 0, 20 minutes, 40 minutes and 60 minutes at 37° C., the number of the colonies was confirmed, and the result was shown in B of FIG. 17. […]

Molecule | viability of Galleria mellonella [1] | reduction of MIC of the polymyxin-based antibiotic in combination with LNT101 (P. aeruginosa) [%] | MIC of antibiotics (P. aeruginosa) [µg/mL] | MIC of the polymyxin-based antibiotic (E. coli(ATCC 8739)) [µg/mL] | MIC of the polymyxin-based antibiotic [2] [µg/mL] | MIC of the polymyxin-based antibiotic [3] [µg/mL] | reduction of MIC of the polymyxin-based antibiotic in combination with LNT102 (gram negative bacteria) | killing ability (number of colonies) (gram negative bacterium; 2 μM, 2 hours, 37° C., P. aeruginosa PA01, A. baumannii ATCC 17978, E. coli ATCC 8739, K. pneumoniae ATCC 13883, E. aerogenes CCARM 16006, S. enteritidis ATCC 13076) | killing ability (number of colonies) (gram negative bacterium; 0.1, 0.5, 2.5 μM, 30 minutes, 1 hour and 2 hours, Pseudomonas aeruginosa, Acinetobacter baumannii, Escherichia coli) | counting result (gram negative bacterium; 2 μM, all the tested bacterium (FIG. 15)) [log CFU/ml]
Colistin | the viability was increased | 50 | 8 | 2 | 2 | 2 | reduced by 1/16 times at maximum |  |  | 
polymyxin B |  | 50 | 4 | 0.5 | 0.5 | 0.5 | reduced by 1/16 times at maximum |  |  | 
LNT102: endolysin LNT101 variant with 15 amino acid mutations, SEQ ID NO: 6, purified with 6× His tag (protein, 6xHis tag; synthetic_Endolysin LNT102) MGTVLKRGDRGSAVEDLQMKLNVAGYNLSADGIFGGDTEKAVRDVQAGAGLVVDGKVGPKTLYAIAKSATVPAKWEAIPFPTANKSRSAAMPTLNAVGAMTGVDSRLLATFASIESAFDYTVKAKTSSATGWFQFLDATWDDMIKAYGSKYGIPKDPTRALRKDPRANALMGAEFIKGNAAVLRPVINREPSDTDLYLAHFLGAGGAKKFLSADQKTLGEVLFPKPAKANPSIFSNKGVPRTLAEIYKLFEDKVSKHRA |  |  |  |  |  |  |  | more excellent killing ability against gram negative bacterium in the same dose-, compared to LNT101 | had the killing ability against gram negative bacterium in all the tested treatment doses and time | 
CecA-LNT101: fusion polypeptide in which Cecropin A was fused to endolysin LNT101; SEQ ID NO: 16 used in the tests (protein, synthetic_Fusion Polypeptide CecA-LNT101 with MAS, His tag, and extra sequence) MASKWKLFKKIEKVGQNIRDGIIKAGPAVAVVGQATQIAKGSGSGSMGTVLKRGDRGSAVEDLQMKLRVAGYAVSADGIFGGDTEKAVRDFQASKALVVDGKVGPATLAELAKSATVPAKWEAIPFPTANKSRSAAMPTLNAVGAMTGTDSRLLATFASIESAFDYTVKASTSSATGWFQFLDATWDDMIKAHGSKYGIPKDPTRALRKDPRANALMGAEFLKGNAAVLRPVINREPSDTDLYLAHFLGAGGAKKFLSADQKTLGEVLFPKPAKANPSIFSNKGVPRTLAEIYKLFEDKVSKHRALEHHHHHH |  |  |  |  |  |  |  |  |  | 0
